Experiments:
HepG2 [1] = assay: Induction of apoptosis in human HepG2 cells assessed as increase in p21 level at 0.625 to 2.5 uM incubated for 24 hrs by Western blot analysis; assay type: functional, cell-based; details: dose 0.625-2.5 µM
HepG2 [2] = assay: Induction of cell cycle arrest in human HepG2 cells assessed as accumulation at G0/G1 phase at 2.5 uM incubated for 24 hrs by flow cytometry (Rvb= 46.5%); assay type: functional
HepG2 [3] = assay: Antimigratory activity against human HepG2 cells assessed as decrease in MMP-9 expression at 0.625 to 2.5 uM incubated 24 hrs by Western blot analysis; assay type: functional, cell-based; details: dose 0.625-2.5 µM
HepG2 [4] = assay: Induction of apoptosis in human HepG2 cells assessed as increase in cleaved caspase-3 level at 0.625 to 2.5 uM incubated for 24 hrs by Western blot analysis; assay type: functional, cell-based; details: dose 0.625-2.5 µM
HepG2 [5] = assay: Induction of apoptosis in human HepG2 cells assessed as early apoptotic cells at 0.625 uM incubated for 24 hrs by Annexin-V/PI staining based flow cytometry (Rvb=4.48%); assay type: functional
MCF7 = assay: Antiproliferative activity against human MCF7 cells assessed as reduction in cell viability incubated for 72 hrs by MTT assay; assay type: functional, cell-based; details: MCF7, 72 h
HepG2 [6] = assay: Induction of apoptosis in human HepG2 cells assessed as late apoptotic cells at 0.625 uM incubated for 24 hrs by Annexin-V/PI staining based flow cytometry (Rvb=0.66%); assay type: functional
[7] = Cytotoxicity against human GES1 cells assessed as reduction in cell viability incubated for 72 hrs by MTT assay; assay type: toxicity, cell-based
HepG2 [8] = assay: Antimigratory activity against human HepG2 cells assessed as inhibition of cell migration at 0.625 to 5 uM measured upto 24 hrs by wound healing assay; assay type: functional, cell-based; details: dose 0.625-5 µM
HepG2 [9] = assay: Induction of apoptosis in human HepG2 cells assessed as necrotic cells at 0.625 uM incubated for 24 hrs by Annexin-V/PI staining based flow cytometry (Rvb=0.85%); assay type: functional
HepG2 [10] = assay: Antimigratory activity against human HepG2 cells assessed as decrease in Snail expression at 0.625 to 2.5 uM incubated 24 hrs by Western blot analysis; assay type: functional, cell-based; details: dose 0.625-2.5 µM
HepG2 [11] = assay: Induction of cell cycle arrest in human HepG2 cells assessed as accumulation at G0/G1 phase at 0.625 uM incubated for 24 hrs by flow cytometry (Rvb= 46.5%); assay type: functional
HepG2 [12] = assay: Induction of apoptosis in human HepG2 cells assessed as total apoptotic cells at 0.625 uM incubated for 24 hrs by Annexin-V/PI staining based flow cytometry (Rvb=5.14%); assay type: functional
HepG2 [13] = assay: Induction of apoptosis in human HepG2 cells assessed as necrotic cells at 5 uM incubated for 24 hrs by Annexin-V/PI staining based flow cytometry (Rvb=0.85%); assay type: functional
HepG2 [14] = assay: Induction of cell cycle arrest in human HepG2 cells assessed as accumulation at S phase at 0.625 uM incubated for 24 hrs by flow cytometry (Rvb= 20.1%); assay type: functional
HepG2 [15] = assay: Induction of cell cycle arrest in human HepG2 cells assessed as accumulation at G2/M phase at 2.5 uM incubated for 24 hrs by flow cytometry (Rvb= 14.05%); assay type: functional
HepG2 [16] = assay: Induction of cell cycle arrest in human HepG2 cells assessed as accumulation at S phase at 1.25 uM incubated for 24 hrs by flow cytometry (Rvb= 20.1%); assay type: functional
HepG2 [17] = assay: Induction of apoptosis in human HepG2 cells assessed as total apoptotic cells at 5 uM incubated for 24 hrs by Annexin-V/PI staining based flow cytometry (Rvb=5.14%); assay type: functional
HepG2 [18] = assay: Induction of apoptosis in human HepG2 cells assessed as late apoptotic cells at 1.25 uM incubated for 24 hrs by Annexin-V/PI staining based flow cytometry (Rvb=0.66%); assay type: functional
HT-29 = assay: Antiproliferative activity against human HT-29 cells assessed as reduction in cell viability incubated for 72 hrs by MTT assay; assay type: functional, cell-based; details: HT-29, 72 h
HepG2 [19] = assay: Induction of apoptosis in human HepG2 cells assessed as viable cells at 0.625 uM incubated for 24 hrs by Annexin-V/PI staining based flow cytometry (Rvb=94.0%); assay type: functional; details: read-out: Activity
HepG2 [20] = assay: Induction of apoptosis in human HepG2 cells assessed as total apoptotic cells at 1.25 uM incubated for 24 hrs by Annexin-V/PI staining based flow cytometry (Rvb=5.14%); assay type: functional
HepG2 [21] = assay: Induction of cell cycle arrest in human HepG2 cells assessed as accumulation at G0/G1 phase at 5 uM incubated for 24 hrs by flow cytometry (Rvb= 46.5%); assay type: functional
HepG2 [22] = assay: Induction of cell cycle arrest in human HepG2 cells assessed as accumulation at G2/M phase at 0.625 uM incubated for 24 hrs by flow cytometry (Rvb= 14.05%); assay type: functional
HepG2 [23] = assay: Induction of apoptosis in human HepG2 cells assessed as total apoptotic cells at 2.5 uM incubated for 24 hrs by Annexin-V/PI staining based flow cytometry (Rvb=5.14%); assay type: functional
HepG2 [24] = assay: Induction of apoptosis in human HepG2 cells assessed as early apoptotic cells at 1.25 uM incubated for 24 hrs by Annexin-V/PI staining based flow cytometry (Rvb=4.48%); assay type: functional
HepG2 [25] = assay: Inhibition of colony formation in human HepG2 cells at 10 uM incubated for 8 days with drug replacement every 2 days by crystal violet staining based imaging analysis; assay type: functional; details: HepG2, 192 h, time 8 day
HepG2 [26] = assay: Induction of apoptosis in human HepG2 cells assessed as necrotic cells at 2.5 uM incubated for 24 hrs by Annexin-V/PI staining based flow cytometry (Rvb=0.85%); assay type: functional
HepG2 [27] = assay: Induction of apoptosis in human HepG2 cells assessed as early apoptotic cells at 2.5 uM incubated for 24 hrs by Annexin-V/PI staining based flow cytometry (Rvb=4.48%); assay type: functional
HepG2 [28] = assay: Antiproliferative activity against human HepG2 cells assessed as reduction in cell viability incubated for 72 hrs by MTT assay; assay type: functional, cell-based; details: HepG2, 72 h
HepG2 [29] = assay: Induction of apoptosis in human HepG2 cells assessed as viable cells at 5 uM incubated for 24 hrs by Annexin-V/PI staining based flow cytometry (Rvb=94.0%); assay type: functional; details: read-out: Activity
HepG2 [30] = assay: Induction of apoptosis in human HepG2 cells assessed as necrotic cells at 1.25 uM incubated for 24 hrs by Annexin-V/PI staining based flow cytometry (Rvb=0.85%); assay type: functional
HepG2 [31] = assay: Induction of cell cycle arrest in human HepG2 cells assessed as accumulation at G2/M phase at 1.25 uM incubated for 24 hrs by flow cytometry (Rvb= 14.05%); assay type: functional
HepG2 [32] = assay: Antimigratory activity against human HepG2 cells assessed as increase in E-cadherin expression at 0.625 to 2.5 uM incubated 24 hrs by Western blot analysis; assay type: functional, cell-based; details: dose 0.625-2.5 µM
HepG2 [33] = assay: Induction of cell cycle arrest in human HepG2 cells assessed as accumulation at G0/G1 phase at 1.25 uM incubated for 24 hrs by flow cytometry (Rvb= 46.5%); assay type: functional
HepG2 [34] = assay: Induction of apoptosis in human HepG2 cells assessed as viable cells at 1.25 uM incubated for 24 hrs by Annexin-V/PI staining based flow cytometry (Rvb=94.0%); assay type: functional; details: read-out: Activity

IC50 (MCF7): 22.1 µM
IC50 (HT-29): > 50 µM
IC50 (HepG2 [28]): 1.13 µM
Structure (SMILES): CC(=O)Nc1ccc(Oc2ccc(F)cc2F)c(-c2ccc3[nH]c(=O)c(C)nc3c2)c1
Activity (HepG2 [1]): Dose-Dependent Effect
Activity (HepG2 [2]): 53.3%
Activity (HepG2 [3]): Dose-Dependent Effect
Activity (HepG2 [4]): Dose-Dependent Effect
Activity (HepG2 [5]): 5.3%
Activity (HepG2 [6]): 0.96%
IC50 at 72 h [7]: 57.2 µM
inhibition (HepG2 [8]): Dose-Dependent Effect
Activity (HepG2 [9]): 0.8%
Activity (HepG2 [10]): Dose-Dependent Effect
Activity (HepG2 [11]): 46.1%
Activity (HepG2 [12]): 6.26%
Activity (HepG2 [13]): 0.84%
Activity (HepG2 [14]): 20%
Activity (HepG2 [15]): 24.4%
Activity (HepG2 [16]): 10.2%
Activity (HepG2 [17]): 11.66%
Activity (HepG2 [18]): 1.37%
viability at 0.625 µM (HepG2 [19]): 92.9%
Activity (HepG2 [20]): 7.66%
Activity (HepG2 [21]): 54.9%
Activity (HepG2 [22]): 15.5%
Activity (HepG2 [23]): 8.61%
Activity (HepG2 [24]): 6.32%
inhibition at 10 µM (HepG2 [25]): 80%
Activity (HepG2 [26]): 0.9%
Activity (HepG2 [27]): 7.22%
viability at 5 µM (HepG2 [29]): 87.5%
Activity (HepG2 [30]): 0.83%
Activity (HepG2 [31]): 22.6%
Activity (HepG2 [32]): Dose-Dependent Effect
Activity (HepG2 [33]): 51%
viability at 1.25 µM (HepG2 [34]): 91.5%

Source: ChEMBL document CHEMBL5236660, “Design, synthesis, and biological evaluation of quinoxalinone derivatives as potent BRD4 inhibitors” (Bioorg Med Chem, 2023)
